Patent publication US20250140406A1, “CLASSIFYING TUMORS AND PREDICTING RESPONSIVENESS” (Oncocyte Corporation, priority 2022, published 2025)
Like-named read-outs stand apart in the source and are kept apart here. Square brackets hold non-standard residues; d marks the D form. Peptide text beside a SMILES is read from it. dPhe(4-Cl) = N[C@H](Cc1ccc(Cl)cc1)C(=O)O; d2Nal = N[C@H](Cc1ccc2ccccc2c1)C(=O)O; dCit = NC(=O)NCCC[C@@H](N)C(=O)O; d3Pal = N[C@H](Cc1cccnc1)C(=O)O

Tests used:
[1] = test system: cancer cell lines classified IM, MSL, M; assay: PRISM screen compound sensitivity correlated with IM, MSL and M subtype of cell lines (101 gene signature); format: cell-based; conditions: for TNBCType train: 101 gene signature
[2] = test system: cancer cell lines, DetermaIO classes; assay: Association of PRISM compound sensitivity with DetermaIO (DTIO) cell line classes; format: cell-based
[3] = correlation of PRISM compound sensitivity with IM subtype correlation, test cell set (188 cell lines)
[4] = correlation of PRISM compound sensitivity with M subtype correlation, test cell set (188 cell lines)
[5] = correlation of PRISM compound sensitivity with MSL subtype correlation, test cell set (188 cell lines)
[6] = subtype (IM, MSL or M) assigned to the compound by negative correlation of PRISM sensitivity with subtype, training cell set (371 cell lines)
[7] = correlation of PRISM compound sensitivity with DTIO (DetermaIO); test cell set (188 cell lines)
[8] = correlation of PRISM compound sensitivity with DTIO (DetermaIO); training cell set (371 cell lines)
[9] = correlation of PRISM compound sensitivity with DTIO; test cell set
[10] = correlation of PRISM compound sensitivity with DTIO; training cell set
[11] = correlation of PRISM compound sensitivity with IM subtype correlation, test cell set
[12] = correlation of PRISM compound sensitivity with M subtype correlation, test cell set
[13] = correlation of PRISM compound sensitivity with MSL subtype correlation, test cell set
[14] = subtype (IM, MSL or M) with which PRISM compound sensitivity is negatively correlated, training cell set
[15] = correlation of compound sensitivity with DetermaIO (DTIO), test set
[16] = correlation of compound sensitivity with DetermaIO (DTIO), training set
[17] = subtype (IM, MSL or M) with which compound sensitivity is negatively correlated, training cell set (371 cell lines)

Compound | IM Corr test [1, 3] | M Corr test [1, 4] | MSL Corr test [1, 5] | DTIO Corr test [2, 9] | DTIO Corr train [2, 10] | other results
iodoquinol | 0.03942 | −0.09894 | −0.104 | – | – | TNBCType train [1, 6]: MSL; DTIO Corr test [2, 7]: 0.03163; DTIO Corr train [2, 8]: −0.06766
COc1ccc(C2=N[C@@H](c3ccc(Cl)cc3)[C@@H](c3ccc(Cl)cc3)N2C(=O)N2CCNC(=O)C2)c(OC(C)C)c1 [nutlin-3] | 0.06852 | −0.07413 | 0.03536 | 0.1503 | 0.1606 | –
O=Nc1ccc(O)c2ncccc12 [NSC-3852] | 0.06425 | −0.1666 | −0.09058 | −0.00012 | 0.09356 | DTIO Corr test ([2]; correlation of compound sensitivity with DTIO; test set): −0.00012; DTIO Corr train ([2]; correlation of compound sensitivity with DTIO; training set): 0.09356
CC[C@H](C)[C@@H]1NC(=O)[C@H](Cc2ccc(O)cc2)NC(=O)[C@@H](N)CSSC[C@@H](C(=O)N2CCC[C@H]2C(=O)N[C@@H](CC(C)C)C(=O)NCC(N)=O)NC(=O)[C@H](CC(N)=O)NC(=O)[C@H](CCC(N)=O)NC1=O [oxytocin] | – | – | – | −0.07667 | 0.04167 | IM Corr test [1, 11]: −0.06688; M Corr test [1, 12]: 0.01789; MSL Corr test [1, 13]: −0.03975; TNBCType train [1, 14]: MSL
Cc1ccc(-n2sc(=O)n(Cc3ccc(F)cc3)c2=O)cc1 [CCG-50014] | 0.03964 | −0.1198 | −0.2063 | −0.03813 | 0.0404 | –
Cc1ccc(NC(=O)c2cccc(C(C)(C)C#N)c2)cc1Nc1ccc2ncn(C)c(=O)c2c1 [AZ-628] | 0.3356 | −0.2327 | 0.1133 | 0.3247 | 0.1908 | DTIO Corr test [2, 15]: 0.3247; DTIO Corr train [2, 16]: 0.1908; DTIO Corr test ([2]; correlation of compound sensitivity with DetermaIO (DTIO); test set): 0.3247; DTIO Corr train ([2]; correlation of compound sensitivity with DetermaIO (DTIO); training set): 0.1908
Cc1nn(C)c2c1C(c1cccc(Cl)c1)=NCCN2 [zometapine] | −0.1347 | 0.04602 | −0.04215 | −0.08271 | 0.09146 | TNBCType train [1, 17]: MSL
CN[C@H]1CN(c2ccc3c(=O)c(C(=O)O)cn(-c4nccs4)c3n2)C[C@@H]1OC [voreloxin] | – | – | – | 0.01495 | −0.04486 | IM Corr test [1, 11]: 0.02919; M Corr test [1, 12]: −0.09678; MSL Corr test [1, 13]: −0.06474; TNBCType train [1, 14]: MSL
COc1cc2nccc(Oc3ccc(NC(=O)Nc4ccc(F)cc4F)c(F)c3)c2cc1OC [KI-8751] | – | – | – | 0.03732 | 0.02512 | IM Corr test [1, 11]: 0.1039; M Corr test [1, 12]: −0.09761; MSL Corr test [1, 13]: 0.006054
CC(=O)N[C@H](Cc1ccc2ccccc2c1)C(=O)N[C@H](Cc1ccc(Cl)cc1)C(=O)N[C@H](Cc1cccnc1)C(=O)N[C@@H](CO)C(=O)N[C@@H](Cc1ccc(O)cc1)C(=O)N[C@H](CCCNC(N)=O)C(=O)N[C@@H](CC(C)C)C(=O)N[C@@H](CCCNC(=N)N)C(=O)N1CCC[C@H]1C(=O)N[C@H](C)C(N)=O [cetrorelix] (Ac-[d2Nal][dPhe(4-Cl)][d3Pal]SY[dCit]LRP[dA]-NH2) | −0.1828 | −0.05533 | −0.07051 | – | – | TNBCType train [1, 6]: MSL; DTIO Corr test [2, 7]: −0.1344; DTIO Corr train [2, 8]: 0.03723
O=C(O)C1CN(CCCP(=O)(O)O)CCN1 (stereo not drawn) [CPP] | −0.04467 | −0.01154 | −0.2411 | – | – | TNBCType train [1, 6]: MSL; DTIO Corr test [2, 7]: −0.04842; DTIO Corr train [2, 8]: −0.04563
COc1cc2c(NC3CCN(CC4CCCCC4)CC3)nc(N3CCCN(C(C)C)CC3)nc2cc1OCCCN1CCCCC1 [UNC0631] | 0.2168 | −0.3256 | −0.09072 | 0.163 | 0.1055 | DTIO Corr test [2, 15]: 0.163; DTIO Corr train [2, 16]: 0.1055
Nc1ncnc2c1c(-c1cnc3[nH]ccc3c1)nn2C1CCCC1 [PP-121] | −0.08606 | 0.07821 | 0.02379 | – | – | DTIO Corr test [2, 7]: −0.08787; DTIO Corr train [2, 8]: −0.1218
repsox | – | – | – | – | – | IM Corr test [1]: −0.07924; M Corr test [1]: 0.1062; MSL Corr test [1]: 0.08697; DTIO Corr test [2]: −0.03254; DTIO Corr train [2]: −0.05665
Cc1oc2nc3c(c(NC(=O)CN4CCCC4=O)c2c1C)CCCC3 [BCI-540] | – | – | – | 0.01234 | −0.02488 | IM Corr test [1, 11]: 0.07689; M Corr test [1, 12]: −0.08152; MSL Corr test [1, 13]: −0.1815; TNBCType train [1, 14]: MSL
C/C(=C\C(=O)Nc1ccccc1C(=O)O)c1ccc2ccccc2c1 [BIBR-1532] | −0.1712 | 0.141 | −0.1482 | −0.226 | −0.05255 | TNBCType train [1, 17]: MSL
O=C(c1ccc(Cl)o1)N1CC2CNCC2C1 (stereo not drawn) [AZD 1446] | −0.01023 | −0.00226 | −0.09838 | −0.00648 | −0.01778 | TNBCType train [1, 17]: MSL
CC(C)C(=O)c1ccc(O)c(O)c1 [U-0521] | −0.0012 | 0.02749 | 0.06256 | −0.01537 | −0.1115 | –
NC(=O)CCCCn1ccc(NC(N)=NCC(F)(F)F)n1 [ICI-162846] | −0.1537 | 0.1647 | 0.0517 | −0.05711 | −0.09255 | –
O=[N+]([O-])c1cc(Cl)ccc1S(=O)(=O)N1CCN(Cc2ccccc2)CC1 [RN-1747] | – | – | – | −0.09773 | −0.1839 | IM Corr test [1, 11]: −0.1441; M Corr test [1, 12]: 0.1428; MSL Corr test [1, 13]: 0.1269
Cc1ccc([N+](=O)[O-])cc1S(=O)(=O)N(C)/N=C/c1cnc2ccc(Br)cn12 [PIK-75] | – | – | – | −0.1696 | −0.1178 | IM Corr test [1, 11]: −0.1541; M Corr test [1, 12]: 0.127; MSL Corr test [1, 13]: 0.07706
CCCCC#Cc1nc(NC)c2ncn([C@@H]3O[C@H](CO)[C@@H](O)[C@H]3O)c2n1 [HEMADO] | – | – | – | −0.09381 | −0.08651 | IM Corr test [1, 11]: −0.0662; M Corr test [1, 12]: 0.05737; MSL Corr test [1, 13]: 0.1849
salvianolic-acid-B | 0.001211 | −0.08646 | −0.06128 | 0.002256 | −0.1092 | TNBCType train [1, 17]: MSL
O=C(O)CNC(=O)c1c(O)c2ccccc2n(Cc2ccccc2)c1=O [IOX2] | −0.04037 | 0.09066 | 0.01906 | – | – | DTIO Corr test ([2]; correlation of PRISM compound sensitivity with DTIO; test cell set (188 cell lines)): −0.06501; DTIO Corr train ([2]; correlation of PRISM compound sensitivity with DTIO; training cell set (371 cell lines)): −0.0409
